Several values for one entry are separate records, joined by “and”; a condition that tells them apart may be missing. Equal entries are not always repeated. Bridge positions count the residues as written; N and C are the ends. Square brackets hold non-standard residues; d marks the D form. Peptide text beside a SMILES is read from it. S5 = C=CCCC[C@](C)(N)C(=O)O; Nle = CCCC[C@H](N)C(=O)O; Aib = CC(C)(N)C(=O)O
Assays:
[1] = test system: Influenza A H3N2 Influenza A/Brisbane/10/2007; test: microbe, parasite or virus in culture; assay type: cell-based, influenza A virus
[2] = test system: Influenza A H1N1 Influenza A/Texas/4/2009; test: microbe, parasite or virus in culture; assay type: cell-based, influenza A virus
[3] = test system: influenza virus, various viral strains; assay type: cell-based
[4] = test system: Influenza B Florida/04/2006; test: Cytopathic effect (CPE) inhibition in MDCK cells, neutral red; assay type: cell-based; conditions: read-out: EC50
[5] = test system: H3N2 Perth/16/2009; test: microbe, parasite or virus in culture; assay type: cell-based, influenza A virus
[6] = test system: H7N9 A/Anhui/1/2013; test: microbe, parasite or virus in culture; assay type: cell-based, influenza A virus; conditions: read-out: EC50
[7] = test system: Influenza A H1N1 Influenza A/California/7/2009; test: microbe, parasite or virus in culture; assay type: cell-based, influenza A virus
[8] = test system: H1N1 A/Solomon Island/03/2006; assay type: cell-based, influenza A virus; conditions: read-out: EC50
[9] = Plasma PK in a cyno monkey, single subcutaneous dose
[10] = test system: H5N1 A/Hong Kong/213/2003; test: microbe, parasite or virus in culture; assay type: cell-based, influenza A virus; conditions: read-out: EC50
[11] = test system: H5N1 A/Duck/MN/1525/81; test: microbe, parasite or virus in culture; assay type: cell-based, influenza A virus; conditions: read-out: EC50
[12] = test system: Influenza B/Brisbane/60/2008; test: microbe, parasite or virus in culture; assay type: cell-based
[13] = test system: Influenza B Brisbane/60/2008; test: Cytopathic effect (CPE) inhibition in MDCK cells, neutral red; assay type: cell-based; conditions: read-out: EC50
[14] = in vitro; conditions: dog, CC50
[15] = test system: H1N1 California/07/2009; test: microbe, parasite or virus in culture; assay type: cell-based, influenza A virus
[16] = cynomolgus monkey, sc, 2.25 mg/kg

## CCCC[C@H](NC(C)=O)C(=O)N[C@@H](CC(=O)O)C(=O)N[C@H](C(=O)N[C@@H](CC(N)=O)C(=O)N[C@@]1(C)CCCC=CCCC[C@@](C)(C(=O)N[C@@H](CC(C)C)C(=O)N[C@@H](CCCCN)C(=O)N[C@H](C(=O)NC(C)(C)C(=O)N[C@@H](C)C(=O)N[C@@H](CCC(N)=O)C(N)=O)C(C)C)NC(=O)[C@H](CC(C)C)NC(=O)[C@H](CC(C)C)NC(=O)[C@H]([C@@H](C)O)NC1=O)C(C)C [AP1, Ac-NleDVN$TLL$LKVAibAQ-NH2] (Ac-[Nle]DVN[S5]TLL[S5]LKV[Aib]AQ-NH2; staple 5-9)
[1]; read-out: EC50
  EC50: > 100 µM
[1]; read-out: EC90
  EC90: > 100 µM
[2]; read-out: EC50
  EC50: > 100 µM
[2]; read-out: EC90
  EC90: > 100 µM
[3]
  EC90: > 100 µM
[4]
  EC50: 11 µM
[5]
  EC90: 28 µM
[5]; read-out: EC50
  EC50: 12 µM
[6]
  EC50: > 100 µM
[7]; read-out: EC50
  EC50: > 100 µM
[7]; read-out: EC90
  EC90: > 100 µM
[8]
  EC50: 3 µM and 1.8 µM
[9]; cyno monkey, single subcutaneous dose 2.25 mg/kg
  time at which drug levels were measureable (last time point assessed): 96 h
[9]; [16]
  MRT: 21 h
  half-life: 13 h
[10]
  EC50: > 100 µM
[11]
  EC50: 6.3 µM and 6.4 µM
[12]
  EC50: > 100 µM
  EC90: > 100 µM
[13]
  EC50: 6.9 µM
[14]
  CC50: > 100 µM
[15]; read-out: EC50
  EC50: 28 µM
[15]; read-out: EC90
  EC90: > 65 µM
